Results published in ChEMBL document CHEMBL5143660, “Investigation on the chemical space of the substituted triazole thio-benzoxazepinone RIPK1 inhibitors” (Eur J Med Chem, 2022).
Activity calls are given as the source filed them. The rule behind the calls is not given here.

Experiments:
[1] = Cytotoxicity against human HT-29 cells assessed as reduction in cell viability; assay type: toxicity, cell-based
HT-29 [2] = assay: Anti-necroptic activity in human HT-29 cells assessed as inhibition of TSZ induced necroptosis measured after 16 to 24 hrs by celltiter-glo luminescent cell viability assay; assay type: functional, cell-based
[3] = target: T1, Receptor-interacting serine/threonine-protein kinase 1 (Homo sapiens, UniProt Q13546); assay: Binding affinity to wild-type human partial length RIPK1 (M1 to K305 residues) expressed in bacterial expression system incubated for 1 hr under shaking condition by Kinomescan method
T1 sequence (Q13546 whole entry): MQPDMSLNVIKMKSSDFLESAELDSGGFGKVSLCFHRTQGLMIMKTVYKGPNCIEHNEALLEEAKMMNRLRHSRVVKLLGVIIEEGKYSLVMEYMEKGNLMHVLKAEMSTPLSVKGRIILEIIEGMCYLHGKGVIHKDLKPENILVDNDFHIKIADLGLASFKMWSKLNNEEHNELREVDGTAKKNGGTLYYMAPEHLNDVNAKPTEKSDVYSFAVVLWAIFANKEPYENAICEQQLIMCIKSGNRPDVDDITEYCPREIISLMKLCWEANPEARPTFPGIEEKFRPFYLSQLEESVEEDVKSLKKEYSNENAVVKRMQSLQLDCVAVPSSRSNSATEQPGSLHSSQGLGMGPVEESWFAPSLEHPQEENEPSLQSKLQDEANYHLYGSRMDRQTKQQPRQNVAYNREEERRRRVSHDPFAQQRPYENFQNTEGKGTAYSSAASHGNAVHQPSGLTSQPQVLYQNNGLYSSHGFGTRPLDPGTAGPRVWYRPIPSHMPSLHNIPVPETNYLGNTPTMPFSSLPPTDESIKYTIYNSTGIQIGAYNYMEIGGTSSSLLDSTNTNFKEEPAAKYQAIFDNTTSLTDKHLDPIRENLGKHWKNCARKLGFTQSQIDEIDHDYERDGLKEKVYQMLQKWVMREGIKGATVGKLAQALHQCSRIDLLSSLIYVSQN

Mus musculus [4] = assay: Anti-necroptic activity against mTNFalpha induced C57BL/6J mouse systemic inflammatory response syndrome model assessed as survival rate pretreated with compound at 5 mg/kg, IG administered as single dose followed by mTNFalpha injection and measured over 60 hrs; assay type: functional
HT-29 [5] = assay: Anti-necroptic activity in human HT-29 cells assessed as inhibition of TSZ induced necroptosis measured after 12 hrs by celltiter-glo luminescent cell viability assay; assay type: functional, cell-based; conditions: dose 0.195-200 nM, DDE = dose-dependent effect
Mus musculus [6] = assay: Anti-necroptic activity against mTNFalpha-induced systemic inflammatory response syndrome C57BL/6J mouse model assessed as protection of body temperature pretreated with compound at 5 to 15 mg/kg, IG administered as single dose followed by mTNFalpha injection measured after 2 to 3 hrs; assay type: functional, organism-based; conditions: dose 5-15 mg/kg, time 2-3 hrs
[7] = target: T2, Receptor-interacting serine/threonine-protein kinase 1 (Homo sapiens) (UniProt Q13546); assay: Inhibition of RIPK1 phosphorylation in TSZ-induced human HT-29 cells at 10 nM pretreated with compound followed by TSZ stimulation and measured after 2 to 6 hrs by immunoblotting analysis; assay type: cell-based; conditions: time 2-6 hrs
T2 sequence (whole entry): T1 sequence (Q13546 whole entry)

[8] = target: T2, Receptor-interacting serine/threonine-protein kinase 1 (Homo sapiens); assay: Inhibition of RIPK1 phosphorylation in TSZ-induced human HT-29 cells pretreated with compound followed by TSZ stimulation and measured after 6 hrs by immunoblotting analysis; assay type: cell-based; conditions: dose 0.5-20 nM, DDE = dose-dependent effect
[9] = target: T3, Mixed lineage kinase domain-like protein (Homo sapiens) (UniProt Q8NB16); assay: Inhibition of MLKL phosphorylation in TSZ-induced human HT-29 cells at 2 to 4 nM pretreated with compound followed by TSZ stimulation and measured after 6 hrs by immunoblotting analysis; assay type: cell-based; conditions: dose 2-4 nM
T3 sequence (whole entry): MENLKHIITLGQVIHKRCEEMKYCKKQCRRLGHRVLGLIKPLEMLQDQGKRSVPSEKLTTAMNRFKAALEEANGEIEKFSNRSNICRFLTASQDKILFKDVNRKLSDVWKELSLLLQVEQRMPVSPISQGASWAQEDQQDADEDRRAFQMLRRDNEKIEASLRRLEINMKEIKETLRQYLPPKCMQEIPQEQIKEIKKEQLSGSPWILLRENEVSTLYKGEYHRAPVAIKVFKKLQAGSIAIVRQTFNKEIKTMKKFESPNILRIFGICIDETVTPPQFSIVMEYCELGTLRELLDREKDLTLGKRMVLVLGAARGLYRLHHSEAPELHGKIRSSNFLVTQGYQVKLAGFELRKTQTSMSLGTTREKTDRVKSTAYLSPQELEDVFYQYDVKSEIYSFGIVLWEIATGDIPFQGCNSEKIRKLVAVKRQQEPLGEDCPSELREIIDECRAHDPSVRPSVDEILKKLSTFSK

HT-29 [10] = assay: Inhibition of RIPK1-RIPK3-MLKL pathway in TSZ induced human HT-29 cells assessed as reduction in necrosome formation at 10 nM measured after 6 hrs by Western blot analysis; assay type: cell-based
[11] = target: T3, Mixed lineage kinase domain-like protein (Homo sapiens); assay: Inhibition of downstream MLKL phosphorylation in TSZ-induced human HT-29 cells at 10 nM pretreated with compound followed by TSZ stimulation and measured after 2 to 6 hrs by immunoblotting analysis; assay type: cell-based; conditions: time 2-6 hrs
Mus musculus [12] = assay: Anti-necroptic activity against mTNFalpha induced C57BL/6J mouse systemic inflammatory response syndrome model assessed as survival rate pretreated with compound at 10 mg/kg, IG administered as single dose followed by mTNFalpha injection and measured over 60 hrs; assay type: functional
[13] = target: T2, Receptor-interacting serine/threonine-protein kinase 1 (Homo sapiens); assay: Inhibition of RIPK1 phosphorylation in TSZ-induced human HT-29 cells at 2 to 4 nM pretreated with compound followed by TSZ stimulation and measured after 6 hrs by immunoblotting analysis; assay type: cell-based; conditions: dose 2-4 nM
[14] = target: T3, Mixed lineage kinase domain-like protein (Homo sapiens); assay: Inhibition of MLKL phosphorylation in TSZ-induced human HT-29 cells pretreated with compound followed by TSZ stimulation and measured after 6 hrs by immunoblotting analysis; assay type: cell-based; conditions: dose 0.5-20 nM, DDE = dose-dependent effect
L929 = assay: Anti-necroptic activity in mouse L929 cells assessed as inhibition of TZ induced necroptosis pretreated with compound followed by TZ addition and measured after 12 hrs by celltiter-glo luminescent cell viability assay; assay type: functional, cell-based; conditions: dose 0.078-10 µM, DDE = dose-dependent effect
U-937 = assay: Anti-necroptic activity in human U-937 cells assessed as inhibition of TSZ induced necroptosis pretreated with compound followed by TSZ addition ans measured after 12 hrs by celltiter-glo luminescent cell viability assay; assay type: functional, cell-based; conditions: dose 0.312-200 nM, DDE = dose-dependent effect
[15] = target: Receptor-interacting serine/threonine-protein kinase 3 (Homo sapiens) (UniProt Q9Y572); assay: Inhibition of RIPK3 phosphorylation in TSZ-induced human HT-29 cells at 2 to 4 nM pretreated with compound followed by TSZ stimulation and measured after 6 hrs by immunoblotting analysis; assay type: cell-based; conditions: dose 2-4 nM
[16] = target: Receptor-interacting serine/threonine-protein kinase 3 (Homo sapiens) (UniProt Q9Y572); assay: Inhibition of RIPK3 phosphorylation in TSZ-induced human HT-29 cells at 10 nM pretreated with compound followed by TSZ stimulation and measured after 2 to 6 hrs by immunoblotting analysis; assay type: cell-based; conditions: time 2-6 hrs
Mus musculus [17] = assay: Anti-necroptic activity against mTNFalpha induced C57BL/6J mouse systemic inflammatory response syndrome model assessed as survival rate pretreated with compound at 15 mg/kg, IG administered as single dose followed by mTNFalpha injection and measured over 60 hrs; assay type: functional
HT-29 [18] = assay: Anti-necroptic activity in human HT-29 cells assessed as inhibition of TCZ induced necroptosis measured after 16 hrs by celltiter-glo luminescent cell viability assay; assay type: functional, cell-based; conditions: dose 0.781-200 nM, DDE = dose-dependent effect
[19] = target: Receptor-interacting serine/threonine-protein kinase 3 (Homo sapiens) (UniProt Q9Y572); assay: Inhibition of RIPK3 phosphorylation in TSZ-induced human HT-29 cells pretreated with compound followed by TSZ stimulation and measured after 6 hrs by immunoblotting analysis; assay type: cell-based; conditions: dose 0.5-20 nM, DDE = dose-dependent effect

Sequence of Receptor-interacting serine/threonine-protein kinase 3 (Homo sapiens) (Q9Y572 whole entry, looked up): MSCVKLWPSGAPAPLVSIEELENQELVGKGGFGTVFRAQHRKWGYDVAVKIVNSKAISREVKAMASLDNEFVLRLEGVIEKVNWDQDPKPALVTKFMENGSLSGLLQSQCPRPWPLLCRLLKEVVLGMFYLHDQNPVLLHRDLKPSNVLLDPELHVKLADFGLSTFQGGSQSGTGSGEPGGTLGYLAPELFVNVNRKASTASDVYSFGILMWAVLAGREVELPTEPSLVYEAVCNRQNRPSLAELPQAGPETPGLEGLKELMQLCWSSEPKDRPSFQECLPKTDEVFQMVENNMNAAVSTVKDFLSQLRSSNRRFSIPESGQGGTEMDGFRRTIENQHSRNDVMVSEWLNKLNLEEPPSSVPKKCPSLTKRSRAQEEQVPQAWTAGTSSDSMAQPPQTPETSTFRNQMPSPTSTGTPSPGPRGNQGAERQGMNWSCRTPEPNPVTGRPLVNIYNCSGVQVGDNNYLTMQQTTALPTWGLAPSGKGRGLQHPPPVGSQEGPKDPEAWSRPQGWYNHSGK

SMILES | CC50 [1] [µM] | EC50 (HT-29 [2]) [nM] | other results
CN1C(=S)[C@@H](NC(=O)c2nc(Cc3ccccc3)n(C3CCNCC3)n2)COc2ccccc21 | > 100 | 1000 | –
CN1C(=S)[C@@H](NC(=O)c2nc(Cc3ccccc3)n(C3CCOC3)n2)COc2ccccc21 (stereo partly specified) | > 100 | 1580 | Kd [3]: 272 nM
CC(C)n1nc(C(=O)N[C@H]2COc3ccccc3N(C)C2=S)nc1Cc1ccccc1 | > 100 | 360 | –
CN1C(=S)[C@@H](NC(=O)c2nc(Cc3ccccc3)n(CC(F)F)n2)COc2ccccc21 | > 100 | 8.9 | –
CN1C(=S)[C@@H](NC(=O)c2nc(Cc3ccccc3)n(CCC(F)(F)F)n2)COc2ccccc21 | > 100 | 1550 | –
CC(C)Cn1nc(C(=O)N[C@H]2COc3ccccc3N(C)C2=S)nc1Cc1ccccc1 | > 100 | 1230 | –
CN1C(=S)[C@@H](NC(=O)c2nc(Cc3ccccc3)n(CCCCC#N)n2)COc2ccccc21 | > 100 | 2680 | –
Cc1cnc(-n2nc(C(=O)N[C@H]3COc4ccccc4N(C)C3=S)nc2Cc2ccccc2)nc1 | > 100 | 1950 | –
CN1C(=S)[C@@H](NC(=O)c2nc(Cc3ccccc3)n(CC(F)(F)F)n2)COc2ccccc21 | > 100 | 36 | Kd [3]: 267 nM
CN1C(=S)[C@@H](NC(=O)c2nc(Cc3ccccc3)n(C3CCCCC3)n2)COc2ccccc21 | > 100 | 4000 | –
CN1C(=S)[C@@H](NC(=O)c2nc(Cc3ccccc3)n(CCCCCC#N)n2)COc2ccccc21 | > 100 | 3830 | –
CCCCCn1nc(C(=O)N[C@H]2COc3ccccc3N(C)C2=S)nc1Cc1ccccc1 | > 100 | 805 | –
CN1C(=S)[C@@H](NC(=O)c2nc(Cc3ccccc3)n(Cc3ccccc3)n2)COc2ccccc21 | > 100 | 414 | –
CCCn1nc(C(=O)N[C@H]2COc3ccccc3N(C)C2=S)nc1Cc1ccccc1 | > 100 | 288 | –
CN1C(=S)[C@@H](NC(=O)c2nc(Cc3ccccc3)n(CC3CCOCC3)n2)COc2ccccc21 | > 100 | 6310 | –
CN1C(=S)[C@@H](NC(=O)c2nc(Cc3ccccc3)n(C3CCCCCC3)n2)COc2ccccc21 | > 100 | 5520 | –
CN1C(=S)[C@@H](NC(=O)c2nc(Cc3ccccc3)n(C)n2)COc2ccccc21 | > 100 | 2.5 | Activity (Mus musculus [4]): 70%; Activity (HT-29 [5]): Dde; Activity (Mus musculus [6]): Active; inhibition [7]: 100%; Kd [3]: 31 nM; inhibition [8]: Dde; inhibition [9]: 100%; inhibition (HT-29 [10]): Active; inhibition [11]: Active; Activity (Mus musculus [12]): 100%; inhibition [13]: 100%; inhibition [14]: Dde; Activity (L929): Dde; Activity (U-937): Dde; inhibition [15]: 100%; inhibition [16]: 100%; Activity (Mus musculus [17]): 100%; Activity (HT-29 [18]): Dde; inhibition [19]: Dde
CN1C(=S)[C@@H](NC(=O)c2nc(Cc3ccccc3)n(C3CCNC3)n2)COc2ccccc21 (stereo partly specified) | > 100 | 1070 | –
CN1C(=S)[C@@H](NC(=O)c2nc(Cc3ccccc3)n(CCCF)n2)COc2ccccc21 | > 100 | 4760 | –

SMILES | CC50 [1] [µM] | EC50 (HT-29 [2]) [nM] | other results
CC(C)CCn1nc(C(=O)N[C@H]2COc3ccccc3N(C)C2=S)nc1Cc1ccccc1 | > 100 | 3640 | –
CN1C(=S)[C@@H](NC(=O)c2nc(Cc3ccccc3)n(C3CCC3)n2)COc2ccccc21 | > 100 | 181 | Kd [3]: 301 nM
CCn1nc(C(=O)N[C@H]2COc3ccccc3N(C)C2=S)nc1Cc1ccccc1 | > 100 | 17 | Kd [3]: 79 nM
CN1C(=S)[C@@H](NC(=O)c2nc(Cc3ccccc3)n(C3CCN(C(=O)OC(C)(C)C)C3)n2)COc2ccccc21 (stereo partly specified) | > 100 | > 10000 | –
CCCCn1nc(C(=O)N[C@H]2COc3ccccc3N(C)C2=S)nc1Cc1ccccc1 | > 100 | 510 | –
CN1C(=S)[C@@H](NC(=O)c2nc(Cc3ccccc3)n(CCCC(F)(F)F)n2)COc2ccccc21 | > 100 | 2380 | –
CN1C(=S)[C@@H](NC(=O)c2nc(Cc3ccccc3)n(CCCC#N)n2)COc2ccccc21 | > 100 | 2400 | –
CN1C(=S)[C@@H](NC(=O)c2nc(Cc3ccccc3)n(CC3CCOC3)n2)COc2ccccc21 (stereo partly specified) | > 100 | 4420 | –
CN1C(=S)[C@@H](NC(=O)c2nc(Cc3ccccc3)n(C3CCOCC3)n2)COc2ccccc21 | > 100 | 2260 | –
CN1C(=O)[C@@H](NC(=O)c2nnc(Cc3ccccc3)[nH]2)COc2ccccc21 [GSK2982772] | > 50 | – | –
CN1C(=S)[C@@H](NC(=O)c2nc(Cc3ccccc3)n(C3CCCC3)n2)COc2ccccc21 | > 100 | 3530 | –
COCCn1nc(C(=O)N[C@H]2COc3ccccc3N(C)C2=S)nc1Cc1ccccc1 | > 100 | 566 | –
CN1C(=S)[C@@H](NC(=O)c2nc(Cc3ccccc3)n(-c3ncccn3)n2)COc2ccccc21 | > 100 | 3970 | –
CN1C(=S)[C@@H](NC(=O)c2nc(Cc3ccccc3)n(CCCO)n2)COc2ccccc21 | > 100 | 208 | –
CN1C(=S)[C@@H](NC(=O)c2n[nH]c(Cc3ccccc3)n2)COc2ccccc21 | > 50 | – | Kd [3]: 31 nM
CN1C(=S)[C@@H](NC(=O)c2nc(Cc3ccccc3)n(C3COC3)n2)COc2ccccc21 | > 100 | 916 | –
CN1C(=S)[C@@H](NC(=O)c2nc(Cc3ccccc3)n(C3CCN(C(=O)OC(C)(C)C)CC3)n2)COc2ccccc21 | > 100 | > 10000 | –
CN1C(=S)[C@@H](NC(=O)c2nc(Cc3ccccc3)n(CC3COC3)n2)COc2ccccc21 | > 100 | 2820 | –
